This experiment concerns 19.6.47 T cells. As to the kind of experiment: Proliferation reaction of isolated T cell clone with cedar pollen antigen and synthetic peptide. It counts as cell-based, human. As to conditions: radiated (45 Gy) PBMC; FIG. 5. The method, then: Purified Cry j I protein (closed bar: 50 μg/ml, hatched bar: […], and open bar: 0.5 μg/ml), Cry j I p301–321 (closed bar: 250 μM, hatched bar: 25 μM, and open bar: 2.5 μM), and irrelevant (irrelevant peptide: […](SEQ ID NO: 3)).
The donor of 19.6.47 T cells suffered from hay fever of Japanese cedar pollen and said T cells were established during heavy pollination season. In this respect, a major allergen of Japanese cedar pollen (Cryptomeria japonica I; Cry j I) among the three non-autologous peptides shown in Table 3 was considered to be a possible peptide ligand recognized by said T cell clone. Thus, a synthetic peptide Cry j I p301–321 ([…](SEQ ID NO: 4)) and purified Cry j I protein were examined for their reactivity with the 19.6.47 T cells. A major allergen of Japanese cedar (Cryptomeria japonica) pollen was purified as described in Matsushita, S. et al., J. Immunol., 1987, 138: 109–115.
The 19.6.47 T cells were cultured with radiated (45 Gy) PBMC either in the presence of purified Cry j I protein ([…]), Cry j I p301–321 peptide ([…]) or irrelevant peptide.

Where no end group is shown, it is not given here.

For the molecule “DVFYNGAYFVSSGKYEGGNIY (SEQ ID NO: 4) [Cry j I p301–321]”, the “reactivity with the 19.6.47 T cells (proliferation)” value is “reacted”.

B1: purified Cry j I protein: purified major allergen of Japanese cedar (Cryptomeria japonica) pollen (protein)
chain: DNPIDSCWRGDSNWAQNRMKLADCAVGFGSSTMGGKGGDLYTVTNSDDDPVNPAPGTLRYGATRDRPLWIIFSGNMNIKLKMPMYIAGYKTFDGRGAQVYIGNGGPCVFIKRVSNVIIHGLYLYGCSTSVLGNVLINESFGVEPVHPQDGDALTLRTATNIWIDHNSFSNSSDGLVDVTLTSTGVTISNNLFFNHHKVMLLGHDDAYSDDKSMKVTVAFNQFGPNCGQRMPRARYGLVHVANNNYDPWTIYAIGGSSNPTILSEGNSFTAPNESYKKQVTIRIGCKTSSSCSNWVWQSTQDVFYNGAYFVSSGKYEGGNIYTKKEAFNVENGNATPQLTKNAGVLTCSLSKRC
For the molecule B1, the “reactivity with the 19.6.47 T cells (proliferation)” value is recorded as “reacted”.
